Emission maximum data for 43 compounds are collected here from the Deep4Chem optical property database.

The data set can be described thus: solvent given as SMILES.

SMILES strings stand for the structures.

With `CCCCN1C(=O)C(=C/C=C/C=C/C=C2N(CCCC)c3ccccc3N2CCCC)C(=O)N(CCCC)C1=S`, the emission maximum by setting is: (in CC#N) 688 nm; (in CCCCCC) 707 nm; (in CCO) 685 nm; (in CN(C)C=O) 690 nm; (in CO) 682 nm; (in Cc1ccccc1) 715 nm. The emission maximum came to 702 nm (in ClC(Cl)Cl), 697 nm (in ClCCl) and 663 nm (in OCC(F)(F)F).

On to `COC(=O)/C=C/c1sc(-c2ccc(N(C)C)s2)c(-c2ccsc2)c1N`, for which, for the setting “in CC#N”, the emission maximum amounted to 557 nm.

Regarding `C=C[Si](c1c2ccccc2cc2ccccc12)(c1c2ccccc2cc2ccccc12)c1c2ccccc2cc2ccccc12`, the emission maximum (in ClC(Cl)Cl) was found to be 437 nm.

`F[B-]1(F)OC(c2cccc(Br)c2)=Cc2ccc3ccccc3[n+]21`: where the note is “in ClC(Cl)Cl”, the emission maximum was 435 nm.

As for `COc1ccc(/C=C/c2nc(/C=C/c3ccc(N(c4ccccc4)c4ccccc4)cc3)cc(/C=C/c3ccc(N(c4ccccc4)c4ccccc4)cc3)n2)cc1`, the emission maximum runs as follows: (in C1CCOC1) 515 nm; (in CC#N) 583 nm; (in CC(C)=O) 555 nm; (in CCCCCCC) 461 nm; (in CS(C)=O) 584 nm; (in Cc1ccccc1) 480 nm. Where the note is “in ClCCl”, this compound came in with an emission maximum of 543 nm.

On to `N#CSC1=CC2=C(c3ccccc3)c3ccc(N4CCOCC4)n3[B-](F)(F)[N+]2=C1N1CCOCC1`, for which the emission maximum by setting is: (in CC#N) 605 nm; (in CCCCCC) 599 nm; (in CCOC(C)=O) 604 nm; (in CO) 599 nm; (in ClCCl) 603 nm.

Regarding `CCNc1cc2oc(=O)cc(C(F)(F)F)c2cc1C`, for the setting “in CC#N”, the emission maximum stood at 481 nm.

Turning to `CCOc1ccc2c(-c3nc(-c4cccc(C)c4)no3)cc(=O)oc2c1`, the emission maximum was found to be 465 nm (in CCO) and 456 nm (in ClC(Cl)Cl).

Where the note is “in CCCCCC”, `CC(C)[Si](C#Cc1ccc(C#C[Si](C(C)C)(C(C)C)C(C)C)c2nc3c(ccc4cc5ccccc5cc43)nc12)(C(C)C)C(C)C` registered an emission maximum of 466 nm.

As for `CC1=[N+]2C(=C(c3ccc(N(C)C)cc3)c3ccc(C)n3[B-]2(F)F)C=C1`, the emission maximum (in C1CCCCC1) was 518 nm; the emission maximum (in C1CCOC1) was determined as 517 nm; the emission maximum (in CC#N) was found to be 511 nm; the emission maximum (in CC(=O)C(C)(C)C) is given as 512 nm; the emission maximum (in CC(C)=O) is on record as 515 nm; the emission maximum (in CCCCCC) stood at 519 nm. Further, the emission maximum is, setting by setting: (in CCOC(C)=O) 513 nm; (in CO) 511 nm; (in Cc1ccccc1) 580 nm; (in ClC(Cl)Cl) 615 nm.

For `C[Si]1(C)c2ccc(-c3ccc(-c4cccs4)s3)cc2C=Cc2cc(-c3ccc(-c4cccs4)s3)ccc21`, the emission maximum (in ClCCl) was 424 nm.

Consider `O=C1CCCc2c1[nH]c1cc3c(cc21)OCO3`, for which the emission maximum by setting is: (in C1CCOC1) 403.84 nm; (in CC#N) 399.42 nm; (in CCCCCCO) 430.73 nm; (in CCO) 437.63 nm; (in CCOC(C)=O) 388.9 nm; (in CS(C)=O) 403.54 nm. Besides, the emission maximum (in O) worked out at 463.6 nm and the emission maximum (in c1ccccc1) worked out at 384.12 nm.

As to `N#Cc1cc2ccc([O-])cc2oc1=O`, under “in O”, the emission maximum was determined as 450 nm.

Consider `COC(=O)/C=C/C=C/C1=CC2=C(c3c(C)cc(C)cc3C)c3cc(/C=C/C=C/C(=O)OC)cn3[B-](F)(F)[N+]2=C1`, for which the emission maximum (in ClCCl) worked out at 662 nm.

Where the note is “in CC#N”, `CC1=C2C3=C(CCc4ccccc43)C(C)=[N+]2[B-](F)(F)n2c(C)c3c(c21)-c1ccccc1CC3` gave an emission maximum of 599 nm.

As to `COc1ccc(C2=[N+]3C(=Nc4c(-c5cc(OC)c(OC)c(OC)c5)c(-c5ccc(C(C)(C)C)cc5)c(-c5ccc(OC)cc5)n4[B-]3(F)F)C(c3cc(OC)c(OC)c(OC)c3)=C2c2ccc(C(C)(C)C)cc2)cc1`, the emission maximum (in Cc1ccccc1) worked out at 726 nm.

In the case of `CCOC(=O)c1ccccc1-c1c2ccc(=[N+](CC)CC)cc-2oc2c1oc1cc(N)ccc12`, the emission maximum is listed as 640 nm (in CCO), 627 nm (in ClCCl) and 645 nm (in O).

`CC(C)[Si]1(C(C)C)c2cc(C=C(C#N)C#N)ccc2-c2ccc(N(C)C)cc21` showed an emission maximum (in C1CCCCC1) of 509 nm; an emission maximum (in CC#N) of 694 nm; an emission maximum (in CCO) of 691 nm; an emission maximum (in CCOCC) of 584 nm; an emission maximum (in CS(C)=O) of 714 nm; an emission maximum (in ClCCl) of 644 nm. Under “in c1ccccc1”, this compound returned an emission maximum of 566 nm.

`CC1(C)c2ccccc2-c2cc3c(cc21)c1ccccc1n3-c1ccc2ncccc2c1`: for the setting “in ClCCl”, the emission maximum stood at 446 nm.

As to `CCC1=[N+]2c3c(c4ccc(Oc5c(C)cc(C)cc5C)c5cc6c(Oc7c(C)cc(C)cc7C)ccc7c8cc(CC)n(c8c3c(c54)c67)[B-]2(F)F)=C1`, the emission maximum (in Cc1ccccc1) worked out at 924 nm.

In turn, `CCOC(=O)c1sc(SC)c2c(=O)n(C)nnc12` showed an emission maximum (in C1CCOC1) of 470 nm; an emission maximum (in CC#N) of 484 nm; an emission maximum (in CCO) of 501 nm; an emission maximum (in CN(C)C=O) of 487 nm; an emission maximum (in CO) of 508 nm; an emission maximum (in CS(C)=O) of 501 nm.

In the case of `C(S/C=C/c1ccc(/C=C/SC=C2CCCC2)cc1)=C1CCCC1`, under “in ClCCl”, the emission maximum is given as 424 nm.

As to `C(=C\c1nc(/C=C/c2ccc(N(c3ccccc3)c3ccccc3)cc2)cc(/C=C/c2ccc(N(c3ccccc3)c3ccccc3)cc2)n1)/c1ccccc1`, the emission maximum by setting is: (in C1CCOC1) 520 nm; (in CC#N) 591 nm; (in CC(C)=O) 563 nm; (in CCCCCCC) 464 nm; (in CS(C)=O) 596 nm; (in Cc1ccccc1) 482 nm. The emission maximum (in ClCCl) was 551 nm.

As for `c1ccc2c(c1)-c1cc(-n3c4ccccc4c4ccccc43)ccc1C21c2ccccc2-n2c3ccccc3c3cccc1c32` (stereo unspecified), the emission maximum (in ClCCl) is 372 nm.

Consider `CC1(C)C(/C=C/C2=C(c3ccc(C(=O)O)cc3)C(=C/C=C3/N(CCCCS(=O)(=O)[O-])c4ccc5ccccc5c4C3(C)C)/CCC2)=[N+](CCCCS(=O)(=O)[O-])c2ccc3ccccc3c21`, for which, under “in CO”, the emission maximum turned out to be 811 nm.

Consider `C(=C\c1cnccn1)/c1ccc2nccnc2c1`, for which the emission maximum amounted to 403 nm (in CCCCCC); 435 nm (in CCO); 443 nm (in CO); 417 nm (in ClCCl); 410 nm (in c1ccccc1).

`CCOC(=O)c1ccc(O)c(-c2[nH]c(=O)n3c2-c2ccccc2C3=O)c1`: the emission maximum is, setting by setting: (in CC#N) 476 nm; (in CO) 490 nm; (in ClCCl) 474 nm.

In turn, `COc1ccc(C(=Cc2ccc(/C=C/c3ccc(C#N)cc3)cc2)c2ccc(OC)cc2)cc1` showed an emission maximum (in C1CCOC1) of 467 nm.

Regarding `CC(C)(C)c1ccc(-c2c(-c3ccc(N(c4ccccc4)c4ccccc4)cc3)c(C#N)c(-c3ccc(N(c4ccccc4)c4ccccc4)cc3)c(-c3ccc(C(C)(C)C)cc3)c2-c2ccc(C(C)(C)C)cc2)cc1`, the emission maximum (in C1CCOC1) is on record as 443 nm.

Take `C[Si]1(C)c2ccc(-c3cccs3)cc2C=Cc2cc(-c3cccs3)ccc21`: the emission maximum (in ClCCl) turned out to be 373 nm.

`CC1(C)c2ccccc2N(c2ccc(-c3ccc(C#N)c(C#N)n3)cc2)c2ccccc21` gave an emission maximum (in Cc1ccccc1) of 562 nm and an emission maximum (in N#Cc1ccc2c(c1)c1ccccc1n2-c1cccc(-n2c3ccccc3c3ccccc32)c1) of 550 nm.

For the compound `COc1cc(/C=C/c2ncc(-c3ccncc3)o2)cc(OC)c1OC`, the emission maximum (in ClCCl) is given as 463 nm.

For the compound `COc1ccc(-c2ncc3ccccn23)cc1`, under “in ClC(Cl)Cl”, the emission maximum turned out to be 469 nm.

As for `COc1ccc(O)c(-c2[nH]c(=O)n3c2-c2ccccc2C3=O)c1`, the emission maximum is on record as 480 nm (in CC#N), 500 nm (in CO) and 481 nm (in ClCCl).

For the setting “in CO”, `CC1(C)C(/C=C/C2=C(c3ccc(C(=O)O)cc3)C(=C/C=C3/N(CCCCS(=O)(=O)[O-])c4ccccc4C3(C)C)/CC2)=[N+](CCCCS(=O)(=O)[O-])c2ccccc21` returned an emission maximum of 816 nm.

In the case of `COc1ccc(-c2nc(-c3cccc(OC)c3)[nH]c2-c2ccc(OC)cc2)cc1`, the emission maximum (in CO) was determined as 399 nm.

As to `CCCCCCCCCC1(CCCCCCCCC)c2cc(C#Cc3ccc(/C=C/c4ccc(N(CCCCCCCC)CCCCCCCC)cc4)cc3)ccc2-c2ccc(C#Cc3ccc(/C=C/c4ccc(N(CCCCCCCC)CCCCCCCC)cc4)cc3)cc21`, the emission maximum (in Cc1ccccc1) came out at 464 nm.

Where the note is “in ClC(Cl)Cl”, `CCCCCCCCN1C(=O)c2ccc3c4c(-c5ccc6c(c5)c5ccccc5n6-c5ccccc5)cc5c6c(cc(-c7ccc8c(c7)c7ccccc7n8-c7ccccc7)c(c7ccc(c2c37)C1=O)c64)C(=O)N(CCCCCCCC)C5=O` registered an emission maximum of 663 nm.

Under “in ClCCl”, `c1ccc2c(c1)ccc1c3ccccc3ccc21` registered an emission maximum of 366 nm.

For the compound `CN(C)c1ccc2c(-c3cc(N)ccc3C(=O)[O-])c3ccc(=[N+](C)C)cc-3oc2c1`, the emission maximum reads like this: (in CCO) 567 nm; (in O) 574 nm.

As to `CCOC(=O)CCCCCn1c2ccccc2c(=O)c2cc3c(cc21)c(=O)c1cc(I)ccc1n3CCCCCC(=O)OCC`, the emission maximum (in CO) came out at 558 nm.

For the setting “in ClCCl”, `CCOc1cccc2c1O[B-](F)(F)[n+]1c3c(c4c(c1-2)-c1ccccc1CC4)-c1ccccc1CC3` had an emission maximum of 483 nm.

With `COc1ccc(C(=O)/C=C2\C(=O)Nc3ccccc32)cc1`, the emission maximum (in C1COCCO1) was determined as 373 nm; the emission maximum (in CC#N) turned out to be 372 nm; the emission maximum (in CC(C)(C)O) came out at 381 nm; the emission maximum (in CC(C)O) came out at 378 nm; the emission maximum (in CCCCO) was determined as 378 nm; the emission maximum (in CCOC(C)=O) turned out to be 375 nm. Besides, the emission maximum is, setting by setting: (in CN(C)C=O) 375 nm; (in CO) 380 nm; (in ClCCl) 411 nm; (in O) 407 nm.
